Laboratory results from patent EP2033635B1, “Use of phenylbutyric acid or salts thereof for treating pruritus” (Asan Laboratories Company (Cayman) Limited, priority 2007, dated 2009).

Experiments:
Type in all cases: cell-based
[1] = system: Jurkat T cells; experiment: Real-time PCR gene expression profiling (RT2 Profiler PCR Array Human Th1-Th2-Th3) in Jurkat T cells stimulated with PMA/ionomycin
Method: FIGs. […] Jurkat T cells were pre-incubated with phenylbutyrate (1 mM) for 24 hrs, and then stimulated with ionomycin (1 µM) and PMA (10 ng/ml) for 6 hrs. Using real-time PCR, the expression of a panel of genes related to helper T cells with or without T-cell stimulation and phenylbutyrate treatment was analyzed. The array includes cytokine genes representative of Th1, Th2 and Th3 cells, gene encoding transcriptional factors regulating the expression of cytokines as well as other markers of CD4+ T lymphocytes, genes involved in immune cell activation in the Th1 and Th2 type immune responses, and genes involved in the antimicrobial humoral response. Results are the mean ± SE of three determinations, expressed as the fold induction (observed experimental relative unit/basal control relative unit in the absence of any stimuli or treatment);
Jurkat T-cells were nonstimulated or stimulated with ionomycin (1 µM) and PMA (10 ng/ml) for 6 hrs in the absence or presence of pre-incubation of 4-phenylbutyrate sodium (1 mM) for 24 hrs, RNA was extracted and then RT-PCR was performed for profiling the expression of 84 genes related to Th1-Th2-Th3 responses shown in the gene table (FIG. 2).

[2] = system: Jurkat T cells; experiment: Flow cytometry of cell proliferation, cytotoxicity, apoptosis and cell cycle in Jurkat T cells
Method: Jurkat T cells were treated in the presence of increasing concentrations of 4-phenylbutyrate, ionomycin, and/or phorbol 12-myristate 13-acetate (PMA) for 24-72 hr at 37°C.

[3] = system: human IL-2 promoter; experiment: Chromatin immunoprecipitation (ChIP) assay of transcription-factor binding and acetyl H3 at the IL-2 promoter in Jurkat T cells; conditions: 4-phenylbutyrate sodium 1 mM 24 hrs, then ionomycin 1 µM and PMA 10 ng/ml 6 hrs
Method: The induction of multiple cytokine expression depends on the coordinated activation of transcription factors, mostly including NFκB, NF-AT, and AP-1 (Sancho R, et al. J Immunol 172:2341-51, 2004; Li-Weber M, et al. Eur J Immunol 34 :1111-18, 2004). Because induction of cytokines is regulated mainly at the transcriptional level, chromatin immunoprecipitation (ChIP) analysis in Jurkat T cells was performed to determine the binding of NFκB, NF-AT, and AP-1 to IL-2 promoter. Jurkat T cells were nonstimulated or stimulated with ionomycin (1 µM) and PMA (10 ng/ml) for 6 hrs in the absence or presence of pre-incubation of 4-phenylbutyrate sodium (1 mM) for 24 hrs, then formaldehyde crosslinking between protein and DNA and ChIP using anti- NFκB, NF-AT, AP-1, Sp1 or acetyl H3 antibodies (Santa Cruz) were performed. PCR primers were designed to amplify the human IL-2 promoter: F 5'-[…] (-317 to -292 in the IL-2 promoter), R 5'-[…] (+33 to 58). PCR amplifications used a three-step protocol with 90°C (30 s) denaturing temperature, 59°C (45 s) primer annealing temperature, and 72°C (30 s) enzyme reaction temperature for 35 cycles.

[4] = PMA/ionomycin-induced Jurkat T-cell activation, result in words
[5] = phenylbutyrate 1 mM 24 hrs, then ionomycin 1 µM + PMA 10 ng/ml 6 hrs, mitogen stimulation alone 2.68
[6] = 1 mM for 48 hrs, control versus treated cells, flow cytometry

Question: Which “expression of SOCS1, a suppressor of cytokine signaling” value [1, 4] does the source give for `O=C([O-])CCCc1ccccc1.[Na+]` [Phenylbutyrate, 4-phenylbutyrate sodium] here?
Answer: The value was “upregulates more expression”.

Question: And the “induction of Th1 and Th2 cytokines and related genes, T-cell activation markers, immune response genes” value [1, 4]?
Answer: Its value is “completely suppresses or significantly decreases”.

Question: And the “fold induction of CCL7” value [1, 5]?
Answer: The value was 1.04 fold.

Question: And the “fold induction of CCL11” value [1, 5]?
Answer: The value was 0.98 fold.

Question: And the “fold induction of CCR5” value [1, 5]?
Answer: Its value is 0.98 fold.

Question: What about the “fold induction of IL6” value [1, 5] of the same compound?
Answer: Its value is 0.98 fold.

Question: And the “fold induction of IL6R” value [1, 5]?
Answer: Its value is 0.98 fold.

Question: What about the “fold induction of IL9” value [1, 5] of the same compound?
Answer: Its value is 0.98 fold.

Question: What about the “fold induction of IL12B” value [1, 5] of the same compound?
Answer: The value was 0.98 fold.

Question: What about the “fold induction of IL12RB2” value [1, 5] of the same compound?
Answer: Its value is 0.98 fold.

Question: And the “fold induction of IL13” value [1, 5]?
Answer: Its value is 0.98 fold.

Question: What about the “fold induction of IL13RA1” value [1, 5] of the same compound?
Answer: Its value is 0.98 fold.

Question: What about the “fold induction of IL18” value [1, 5] of the same compound?
Answer: The value was 0.98 fold.

Question: What about the “fold induction of MAF” value [1, 5] of the same compound?
Answer: Its value is 0.98 fold.

Question: What about the “fold induction of SFTPD” value [1, 5] of the same compound?
Answer: The value was 0.98 fold.

Question: And the “fold induction of TLR4” value [1, 5]?
Answer: Its value is 0.98 fold.

Question: And the “fold induction of LAT” value ([1]; phenylbutyrate 1 mM 24 hrs, then ionomycin 1 µM + PMA 10 ng/ml 6 hrs, mitogen stimulation alone 3.12)?
Answer: The value was 1.57 fold.

Question: What about the “fold induction of CCR2” value ([1]; phenylbutyrate 1 mM 24 hrs, then ionomycin 1 µM + PMA 10 ng/ml 6 hrs, mitogen stimulation alone 4.20) of the same compound?
Answer: The value was 0.84 fold.

Question: What about the “fold induction of JAK2” value ([1]; phenylbutyrate 1 mM 24 hrs, then ionomycin 1 µM + PMA 10 ng/ml 6 hrs, mitogen stimulation alone 4.72) of the same compound?
Answer: Its value is 2.27 fold.

Question: What about the “fold induction of SOCS1” value ([1]; phenylbutyrate 1 mM 24 hrs, then ionomycin 1 µM + PMA 10 ng/ml 6 hrs, mitogen stimulation alone 4.82) of the same compound?
Answer: The value was 8.59 fold.

Question: What about the “fold induction of IRF1” value ([1]; phenylbutyrate 1 mM 24 hrs, then ionomycin 1 µM + PMA 10 ng/ml 6 hrs, mitogen stimulation alone 5.86) of the same compound?
Answer: Its value is 1.7 fold.

Question: What about the “fold induction of CCR4” value ([1]; phenylbutyrate 1 mM 24 hrs, then ionomycin 1 µM + PMA 10 ng/ml 6 hrs, mitogen stimulation alone 7.41) of the same compound?
Answer: Its value is 1.93 fold.

Question: What about the “fold induction of STAT4” value ([1]; phenylbutyrate 1 mM 24 hrs, then ionomycin 1 µM + PMA 10 ng/ml 6 hrs, mitogen stimulation alone 7.89) of the same compound?
Answer: The value was 3.32 fold.

Question: And the “fold induction of IL1R1” value ([1]; phenylbutyrate 1 mM 24 hrs, then ionomycin 1 µM + PMA 10 ng/ml 6 hrs, mitogen stimulation alone 11.31)?
Answer: Its value is 3.92 fold.

Question: And the “fold induction of IL18R1” value ([1]; phenylbutyrate 1 mM 24 hrs, then ionomycin 1 µM + PMA 10 ng/ml 6 hrs, mitogen stimulation alone 19.97)?
Answer: Its value is 0.98 fold.

Question: What about the “fold induction of IRF4” value ([1]; phenylbutyrate 1 mM 24 hrs, then ionomycin 1 µM + PMA 10 ng/ml 6 hrs, mitogen stimulation alone 26.17) of the same compound?
Answer: Its value is 16.50 fold.

Question: What about the “fold induction of TLR6” value ([1]; phenylbutyrate 1 mM 24 hrs, then ionomycin 1 µM + PMA 10 ng/ml 6 hrs, mitogen stimulation alone 29.04) of the same compound?
Answer: Its value is 10.43 fold.

Question: And the “fold induction of IL4R” value ([1]; phenylbutyrate 1 mM 24 hrs, then ionomycin 1 µM + PMA 10 ng/ml 6 hrs, mitogen stimulation alone 42.81)?
Answer: Its value is 9.53 fold.

Question: And the “fold induction of BCL3” value ([1]; phenylbutyrate 1 mM 24 hrs, then ionomycin 1 µM + PMA 10 ng/ml 6 hrs, mitogen stimulation alone 58.08)?
Answer: Its value is 19.73 fold.

Question: And the “fold induction of CD69” value ([1]; phenylbutyrate 1 mM 24 hrs, then ionomycin 1 µM + PMA 10 ng/ml 6 hrs, mitogen stimulation alone 87.43)?
Answer: Its value is 48.57 fold.

Question: What about the “fold induction of TNFRSF9” value ([1]; phenylbutyrate 1 mM 24 hrs, then ionomycin 1 µM + PMA 10 ng/ml 6 hrs, mitogen stimulation alone 89.26) of the same compound?
Answer: The value was 13.01 fold.

Question: What about the “fold induction of IFN-gamma” value ([1]; phenylbutyrate 1 mM 24 hrs, then ionomycin 1 µM + PMA 10 ng/ml 6 hrs, mitogen stimulation alone 126.24) of the same compound?
Answer: Its value is 99.18 fold.

Question: And the “fold induction of IL2RA” value ([1]; phenylbutyrate 1 mM 24 hrs, then ionomycin 1 µM + PMA 10 ng/ml 6 hrs, mitogen stimulation alone 151.17)?
Answer: Its value is 64.98 fold.

Question: And the “fold induction of CSF2” value ([1]; phenylbutyrate 1 mM 24 hrs, then ionomycin 1 µM + PMA 10 ng/ml 6 hrs, mitogen stimulation alone 229.13)?
Answer: The value was 88.77 fold.

Question: And the “fold induction of IL2” value ([1]; phenylbutyrate 1 mM 24 hrs, then ionomycin 1 µM + PMA 10 ng/ml 6 hrs, mitogen stimulation alone 831.75)?
Answer: Its value is 304.86 fold.

Question: And the apoptosis [2, 6]?
Answer: Its apoptosis is “no significant differences”.

Question: And the cell proliferation [2, 6]?
Answer: The cell proliferation was “no significant differences”.

Question: What about the cytotoxicity [2, 6] of the same compound?
Answer: Its cytotoxicity is “no significant differences”.

Question: What about the “entry of the cells into the S phase of the cell cycle” value ([2]; pre-treatment 1 mM for 24 hrs, 48 hrs after stimulation with ionomycin 1 µM plus PMA 10 ng/ml) of the same compound?
Answer: The value was “almost completely prevented”.

Question: What about the “DNA binding of AP-1 to IL-2 promoter” value [3] of the same compound?
Answer: Its value is “decreases”.

Question: What about the “DNA binding of NF-AT to IL-2 promoter” value [3] of the same compound?
Answer: The value was “decreases”.

Question: And the “DNA binding of NFκB to IL-2 promoter” value [3]?
Answer: Its value is “decreases”.

Question: What about the “chromatin structure, acetyl H3 status” value [3] of the same compound?
Answer: The value was “altering acetyl H3 status”.
